According to patent US20200352918A1, “COMPOUNDS AND METHODS FOR TREATING OR PREVENTING FIBROSIS” (priority 2019, published 2020):

Assays:
ocular mucosal fibrosis = assay: Murine model of ocular mucosal fibrosis (OVA induced); assay type: in vivo, mice
Protocol: Female […] mice 8-10 week of age were used for all experiments. The mice were housed in the institute's vivarium in compliance with the Animal Research Committee. Immune-mediated conjunctivitis was induced in by i.p. injection of 200 μl of immunization mix containing: 10 μg Ovalbumin (OVA) (Sigma-Aldrich), 4 mg aluminium hydroxide (Thermo Scientific), and 300 ng of pertussis toxin (Sigma-Aldrich). After 2 weeks, mice received topical OVA challenge ([…]) once a day for 7 days for the development of fibrosis. To evaluate the efficacy of AA5 in preventing fibrosis, topical OVA challenge was accompanied by addition of 1, 10, 100 or 1000 ug/mouse (n=12) AA5 administered in both eyes in a volume of 5 ul for a total of 7 days.
To evaluate the efficacy of AA5 in resolving fibrosis, topical OVA challenge was continued for an additional 7 days (days 14-21) after the initial OVA sensitization for the development of fibrosis. From day 21 to 28, OVA challenge was accompanied by addition of 1, 10, 100 or 1000 ug/mouse (n=12) AA5. 1% DMSO administered in both eyes in a 5 µl volume of PBS was used as control. Both eyes were scored in the same manner. For the scoring, a cumulative score of eyelid swelling (out of 3) and tearing (out of 3) was taken. At the end of the experiment at day 21 (prevention studies) or […] (resolution studies), mice were sacrificed and whole eyes were collected, fixed in 10% (v/v) formalin and processed by the standard methods for paraffin embedding. Sections (5 μm) were stained with Gomori Trichrome and H&E and imaged. Tissue sections were reviewed by 4 independent observers, including two observers who were blinded to the groups—a pathologist and another researcher. Conjunctivae were dissected from whole eyes and either processed for RNA or hydroxyproline.
Conjunctiva or LSCs were boiled in 50 μl or 400 μl of 6 M HCl, respectively at 100° C. overnight. Hydroxyproline levels were measured in the acid hydrolysis method using a kit from Biovision Inc. (Milpitas, Calif.) using the manufacturer's instructions. […]

iFA model = assay: Fibrotic marker, cytokine and repair modulator expression in the iFA model (qPCR, immunoblotting, luminex, immunofluorescence); assay type: cell-based, human
Protocol: The Milliplex human cytokine/chemokine Panel IV, human TIMP Panel 2, and human TGFβ 1,2,3 magnetic bead kits (EMD Millipore) were used per manufacturer's instructions. Prior to plating, all samples tested for human TGFβ only were activated and neutralized with 1.0 N HCl and 1.0 N NaOH, respectively. Briefly, 25 μl of undiluted or treated cell culture supernatant samples were mixed with 25 μl of magnetic beads and allowed to incubate overnight at 4° C. while shaking. After washing the plates with wash buffer in a Biotek ELx405 washer, 25 μl of biotinylated detection antibody was added and incubated for 1 hour at room temperature while shaking. 25 μl of streptavidin-phycoerythrin conjugate was then added to the reaction mixture and incubated for another 30 minutes at room temperature while shaking. Following additional washes, beads were resuspended in sheath fluid, and fluorescence was quantified using a Luminex 200 instrument. Similarly, a custom magnetic Luminex assay kit of select analytes (R&D Systems) was used per manufacturer's instructions. Cell culture supernatants were prepared with a 2-fold dilution. 50 μl of diluted sample were added to 50 μl of provided micro-particle cocktail and incubated for 2 hours at room temperature while shaking. After washing with wash buffer, 50 μl of biotin antibody cocktail was added and incubated for 1 hour at room temperature while shaking. Following additional washes, 50 μl of diluted Streptavidin-PE was then added for incubation for 30 minutes at room temperature while shaking. The plate was then washed again and the micro-particles resuspended in 100 μl wash buffer. After an additional 2-minute incubation while shaking, the data was acquired using a Luminex 200 instrument.
In-vitro cultures of PF and cells in the iFA model were washed once with PBS and total RNA from the samples were extracted using the RNeasy Mini Kit (Qiagen) according to the manufacturer's instructions. For the lung slice cultures (LSC), tissues were snap-frozen after treatment and stored at −80° C. until RNA isolation. Lung slices were homogenized using a handheld homogenizer and passing the homogenate through a Qiashredder (Qiagen). Total RNA from the LSC and cells from the disease model were extracted using the RNeasy Mini Kit (Qiagen) according to the manufacturer's instructions. The RNA concentrations were measured on a NanoDrop ND-1000 spectrophotometer. Single-stranded cDNA was synthesized from 200 ng of total RNA using Superscript IV and random hexamer primers (Invitrogen) in a volume of 20 μl. cDNA was then used for qRT-PCR analysis. PCR reactions were performed using Taqman Gene Expression Assay mix (Applied Biosystems) according to the manufacturer's instructions.
qRT-PCR reactions were performed using the StepOnePlus (Applied Biosystems). Relative gene expression was calculated using the 2^−ΔΔCt method, with 18S Cat. #4331182 (Invitrogen) as housekeeping gene. For the RT^2qPCR arrays, cDNA from DMSO and AA5 treated iFA and was added to the RT^2 qPCR iTaq Universal SYBR green Master Mix (Biorad). 20 μl of the experimental cocktail was added to each well of the Fibrosis PCR (Qiagen). Real-Time PCR was performed on the StepOnePlus qPCR system (Applied Biosystems) using SYBR green detection according to the manufacturer's recommendations. All data from the PCR was collected and analyzed by SA Bioscience's PCR Array Data Analysis Web Portal.
Cells grown on coverslips were fixed in 4% paraformaldehyde (PFA) for 10 min at room temperature and washed three times with TBS buffer supplemented with 0.1% Tween 20 (TBST). Lung samples were fixed overnight in 4% PFA at room temperature, washed 3 times in PBS, dehydrated and then infiltrated and embedded with wax. Five-micron sections were collected on glass slides, deparaffinized and rehydrated. Heat-induced epitope retrieval was performed using 1 mM EDTA in a microwave. […]

## Cc1c(C(=O)Nc2nc3ccccc3s2)sc2nc3cc4c(cc3cc12)OCO4 [AA5]
Ocular mucosal fibrosis; AA5 1000 ug
  Gomori Trichrome sections of whole eyes: conjunctiva thickness and collagen deposition: qualitatively decreased thickness of conjunctiva and collagen deposition
Ocular mucosal fibrosis; AA5-prevention and AA5-resolution at 0.1 and 1 mg doses
  Collagen content of the conjunctivae: significant reduction
Ocular mucosal fibrosis; topical, preventive and resolutive treatments, vs DMSO-treated eyes
  Clinical swelling, tearing and inflammation of eyes: less clinical swelling, tearing and inflammation
iFA model; AA5-prevention and AA5-resolution, luminex
  Secreted levels of acute-phase response cytokines IL-6, IL-8 and IFNα: increase
iFA model; AA5-prevention and AA5-resolution, over time
  PTX3 protein: progressively increasing amounts
iFA model; AA5 treated iFA model
  Acute-phase signaling secondary cytokines MCP-3, VEGF, CSF3 and GRO: increase
iFA model; AA5 treatment, confirmed by immunoblotting, luminex, immunofluorescence
  Gene expression of fibrotic markers α-SMA, Collagen I, TIMP-3 and POSTN: down-regulation
iFA model; within 24 hours of AA5-resolution treatment
  Modulators of tissue repair PTX3 and CD163L1: upregulation
